Results from ChEMBL document CHEMBL1687756 (Antimicrob Agents Chemother, 2010).

How the values were obtained:
[1] = Drug level in Beagle dog thymus at 5 mg/kg, sc after 6 months; format: ADME, organism-based, Canis lupus familiaris; design: dose 5 mg/kg, route subcutaneous; conditions: read-out: Drug uptake
[2] = Cmax in Beagle dog at 5 mg/kg administered intramuscularly after 176 days; format: ADME, organism-based, Canis lupus familiaris; design: dose 5 mg/kg, route intramuscular; conditions: in vivo, im
[3] = Drug level in Beagle dog lymph node popliteal at 5 mg/kg administered intramuscularly after 3 months; format: ADME, organism-based, Canis lupus familiaris; design: dose 5 mg/kg, route intramuscular; conditions: im, read-out: Drug uptake
[4] = Ratio of drug level in thymus to plasma in male Beagle dog at 400 mg/kg, sc after 3 months; format: ADME, organism-based, Canis lupus familiaris; design: dose 400 mg/kg, route subcutaneous
[5] = AUC (0 to infinity) in Beagle dog at 1.25 mg/kg, iv after 2 days; format: ADME, organism-based, Canis lupus familiaris; design: dose 1.25 mg/kg, route intravenous, time infinity; conditions: plasma
[6] = Plasma concentration in female Beagle dog at 400 mg/kg, sc after 3 months; format: ADME, organism-based, Canis lupus familiaris; design: dose 400 mg/kg, route subcutaneous
[7] = (§1) Plasma concentration in Beagle dog at 5 mg/kg, sc after 3 months; format: ADME, organism-based, Canis lupus familiaris; design: dose 5 mg/kg, route subcutaneous
[8] = Drug level in Beagle dog skin at injected site at 5 mg/kg, sc after 6 months; format: ADME, organism-based, Canis lupus familiaris, Zone of skin; design: dose 5 mg/kg, route subcutaneous; conditions: read-out: Drug uptake
[9] = Drug level in Beagle dog lymph node axillar at 5 mg/kg, sc after 3 months; format: ADME, organism-based, Canis lupus familiaris; design: dose 5 mg/kg, route subcutaneous; conditions: axillary lymph node, read-out: Drug uptake
[10] = Plasma concentration in male Beagle dog at 400 mg/kg, sc after 3 months; format: ADME, organism-based, Canis lupus familiaris; design: dose 400 mg/kg, route subcutaneous
[11] = Ratio of drug level in spleen to plasma in male Beagle dog at 400 mg/kg, sc after 3 months; format: ADME, organism-based, Canis lupus familiaris; design: dose 400 mg/kg, route subcutaneous
[12] = Ratio of drug level in thymus to plasma in female Beagle dog at 400 mg/kg administered intramuscularly after 1 month; format: ADME, organism-based, Canis lupus familiaris; design: dose 400 mg/kg, route intramuscular; conditions: im
[13] = Ratio of drug level in spleen to plasma in female Beagle dog at 200 mg/kg, sc after 1 month; format: ADME, organism-based, Canis lupus familiaris; design: dose 200 mg/kg, route subcutaneous
[14] = Ratio of drug level in lymph node popliteal to plasma in Beagle dog at 5 mg/kg administered intramuscularly after 1 month; format: ADME, organism-based, Canis lupus familiaris; design: dose 5 mg/kg, route intramuscular; conditions: im
[15] = Plasma concentration in male Beagle dog at 400 mg/kg administered intramuscularly after 3 months; format: ADME, organism-based, Canis lupus familiaris; design: dose 400 mg/kg, route intramuscular; conditions: im
[16] = Ratio of drug level in spleen to plasma in female Beagle dog at 400 mg/kg administered intramuscularly after 1 month; format: ADME, organism-based, Canis lupus familiaris; design: dose 400 mg/kg, route intramuscular; conditions: im
[17] = Drug level in male Beagle dog thymus at 400 mg/kg administered intramuscularly after 1 month; format: ADME, organism-based, Canis lupus familiaris; design: dose 400 mg/kg, route intramuscular; conditions: im, read-out: Drug uptake
[18] = Cmax in Beagle dog at 5 mg/kg administered intramuscularly after 184 days; format: ADME, organism-based, Canis lupus familiaris; design: dose 5 mg/kg, route intramuscular; conditions: in vivo, im
[19] = AUC (0 to last) in Beagle dog at 5 mg/kg, sc after 184 days; format: ADME, organism-based, Canis lupus familiaris; design: time 0 - last, dose 5 mg/kg, route subcutaneous; conditions: plasma
[20] = Drug level in female Beagle dog thymus at 400 mg/kg, sc after 3 months; format: ADME, organism-based, Canis lupus familiaris; design: dose 400 mg/kg, route subcutaneous; conditions: read-out: Drug uptake
[21] = Ratio of drug level in spleen to plasma in female Beagle dog at 200 mg/kg, sc after 3 months; format: ADME, organism-based, Canis lupus familiaris; design: dose 200 mg/kg, route subcutaneous
[22] = Cmax in female dog at 200 mg, sc after 85 days; conditions: in vivo
[23] = Drug level in female Beagle dog thymus at 400 mg/kg administered intramuscularly after 1 month; format: ADME, organism-based, Canis lupus familiaris; design: dose 400 mg/kg, route intramuscular; conditions: im, read-out: Drug uptake
[24] = Drug level in Beagle dog muscle at injected site at 5 mg/kg administered intramuscularly after 3 months; format: ADME, organism-based, Canis lupus familiaris, Muscle tissue; design: dose 5 mg/kg, route intramuscular; conditions: im, read-out: Drug uptake
[25] = as §1; format: ADME, organism-based, Canis lupus familiaris; design: dose 5 mg/kg, route subcutaneous; remark: listed apart in the source
[26] = Drug level in Beagle dog spleen at 5 mg/kg, sc after 6 months; format: ADME, organism-based, Canis lupus familiaris; design: dose 5 mg/kg, route subcutaneous; conditions: read-out: Drug uptake
[27] = AUC (0 to last) in male dog at 400 mg administered intramuscularly after 29 days; conditions: plasma, im
[28] = Drug level in male Beagle dog thymus at 400 mg/kg, sc after 3 months; format: ADME, organism-based, Canis lupus familiaris; design: dose 400 mg/kg, route subcutaneous; conditions: read-out: Drug uptake
[29] = Drug level in Beagle dog lymph node popliteal at 5 mg/kg administered intramuscularly after 1 month; format: ADME, organism-based, Canis lupus familiaris; design: dose 5 mg/kg, route intramuscular; conditions: im, read-out: Drug uptake

- concentration at 4383 h [1]: 20.2 ng/g
- Cmax [2]: 619 ng/mL
- concentration at 2191.5 h [3]: 13.7 ng/g
- Kp at 2191.5 h [4]: 3.5
- AUC(0-inf) [5]: 8660 ng·h/mL
- concentration at 2191.5 h [6]: 36 ng/mL
- concentration at 2191.5 h [7]: 3.3 ng/mL
- concentration at 4383 h [8]: 143000 ng/g
- concentration at 2191.5 h [9]: 22.1 ng/g
- concentration at 2191.5 h [10]: 48.4 ng/mL
- Kp at 2191.5 h [11]: 2.3
- Kp at 730.5 h [12]: 6
- Kp at 730.5 h [13]: 2
- Kp at 730.5 h [14]: 574
- concentration at 2191.5 h [15]: 22.1 ng/mL
- Kp at 730.5 h [16]: 2.6
- concentration at 730.5 h [17]: 634 ng/g
- Cmax [18]: 173 ng/mL
- AUC(0-t) at 4416 h [19]: 24400 ng·h/mL
- concentration at 2191.5 h [20]: 101 ng/g
- Kp at 2191.5 h [21]: 1.9
- Cmax [22]: 191 ng/mL
- concentration at 730.5 h [23]: 676 ng/g
- concentration at 2191.5 h [24]: 142000 ng/g
- concentration at 2191.5 h [25]: 3.3 ng/mL
- concentration at 4383 h [26]: 7.1 ng/g
- AUC(0-t) at 696 h [27]: 188000 ng·h/mL
- concentration at 2191.5 h [28]: 173 ng/g
- concentration at 730.5 h [29]: 6500 ng/g
Compound: Cc1cc(/C=C/C#N)cc(C)c1Nc1ccnc(Nc2ccc(C#N)cc2)n1 [RILPIVIRINE]
